Like-named read-outs stand apart in the source and are kept apart here.
What was measured:
[1] = biological target: T1, S. glaucescens His6-KASIII (Streptomyces glaucescens, UniProt Q54206); assay: KASIII scintillation proximity assay (SPA); type: biochemical
T1 construct: His6 (N); made in house; host or cells: Escherichia coli BL21 (DE3 pLysE)/pLH14
T1 sequence (Q54206 1-333): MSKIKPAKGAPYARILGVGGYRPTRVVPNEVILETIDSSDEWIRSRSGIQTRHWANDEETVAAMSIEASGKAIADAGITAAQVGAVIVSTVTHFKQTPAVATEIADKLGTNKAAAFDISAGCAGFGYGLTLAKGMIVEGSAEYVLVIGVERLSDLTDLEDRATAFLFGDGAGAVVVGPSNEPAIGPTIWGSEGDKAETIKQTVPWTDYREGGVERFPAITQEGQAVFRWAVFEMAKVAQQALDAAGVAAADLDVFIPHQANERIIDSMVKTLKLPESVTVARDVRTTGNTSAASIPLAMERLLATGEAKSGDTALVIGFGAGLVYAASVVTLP
Description: (§1) The standard reaction mixture contained the following components in a final volume of […]: S. glaucescens His6-KASIII […], 100 mM imidazole, pH 7.0, 2.6 μM BMACP (MACP), [^3H] acetyl-CoA 0.6 μM (0.24 μCi, specific activity 20 Ci/mmol). The reaction was initiated by adding [^3H] acetyl-CoA and incubated at 30 ° C. for 10 minutes.
(§2) For the KASIII SPA, the reaction was terminated by the sequential addition of 100 μl of 100% ethanol (which denatures the KASIII) and 50 μl of the SPA bead solution (10 mg/ml). The mixture was then incubated for 2 hr at 23° C. with gentle shaking. After allowing the beads to settle the sealed OptiPlate (Packard, Meriden, Conn.) was counted using a TopCount (Packard) set up in SPA mode. A background signal was obtained by carrying out the assay in absence of KASIII. This background signal was subtracted from KASIII SPA signals.
(§3) In all inhibitor studies, the inhibitor was first dissolved in DMSO and preincubated with enzyme for 15 minutes at 23° C., prior to addition of substrate. The final DMSO concentration in each of these assays remained below 1%.
The apparent Km for MACP with the S. glaucescens KASIII was determined using the standard TCA precipitation assay with the following modifications: tritiated acetyl-CoA at a final concentration of 13.3 μM (0.4 μCi, specific activity 1 Ci/mmol ) was incubated at 30° C. for 5 min with various concentrations of MACP (0.39-18.7 μM) in a volume of 30 μl. The apparent Km for BMACP with the S. glaucescens KASIII was determined in SPA format. Tritiated acetyl-CoA at a final concentration of 7.5 μM (0.6 μCi, specific activity 4 Ci/mmol) was incubated at 30° C. for 9 min with various BMACP concentrations (0.28 to 9 μM).

[2] = biological target: T1, S. glaucescens His6-KASIII; settings: cited from earlier work
[3] = biological target: T1, S. glaucescens His6-KASIII; assay: KASIII TCA precipitation assay; type: biochemical
Description: as §1
(§4) In the KASIII TCA precipitation assay, the reaction was quenched by the addition of 200 μl ice cold 10% TCA, incubated on ice for 10 min and centrifuged at 13,000 g for 10 min. The supernatant was discarded and the pellet was resuspended with another 200 μl of cold TCA and centrifuged. The pellet bound ^3H labeled product was dissolved in 2% SDS, 20 mM NaOH and quantitated by liquid scintillation counting. The Escherichia coli KASIII assay was performed in the same manner except that the incubation time was reduced to 2 minutes, and 0.13 μg of protein and 0.4 μM MACP (BMACP) were used in the assay.
In all inhibitor studies, the inhibitor was first dissolved in DMSO and preincubated with enzyme for 15 minutes at 23° C., prior to addition of substrate. The final DMSO concentration in each of these assays remained below 1%. […]

E. coli KASIII [4] = biological target: T2, E. coli KASIII (Escherichia coli, UniProt P0A6R0); assay: KASIII TCA precipitation assay; type: biochemical
Description: as §1, §4, §3

E. coli KASIII [5] = biological target: T2, E. coli KASIII; assay: KASIII scintillation proximity assay (SPA); type: biochemical
Description: as §1, §2
as §4, with “The Escherichia coli KASIII assay was performed in the same manner except that the incubation time was reduced to 2 minutes, and 0.13 μg of protein and 0.4 μM MACP (BMACP) were used in the assay.” left out

T2 sequence (P0A6R0 whole entry): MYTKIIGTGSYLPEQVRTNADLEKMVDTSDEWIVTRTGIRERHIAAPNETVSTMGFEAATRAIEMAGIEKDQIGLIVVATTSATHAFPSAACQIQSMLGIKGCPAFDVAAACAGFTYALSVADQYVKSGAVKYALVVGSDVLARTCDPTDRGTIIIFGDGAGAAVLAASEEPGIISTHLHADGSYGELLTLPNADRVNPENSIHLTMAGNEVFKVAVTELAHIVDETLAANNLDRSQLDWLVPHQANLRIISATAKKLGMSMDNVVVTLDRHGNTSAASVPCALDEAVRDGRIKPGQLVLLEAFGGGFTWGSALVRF

C[S+](C)[O-] [DMSO, Dimethyl Sulfoxide]
reduction in the SPA signal ([1]; DMSO concentration of 10% v/v): ~50%
decrease in the SPA signal ([1]; DMSO concentrations below 1.5% v/v): no significant decrease

CC(=O)SCCNC(=O)CCNC(=O)[C@H](O)C(C)(C)COP(=O)(O)OP(=O)(O)OC[C@H]1O[C@@H](n2cnc3c(N)ncnc32)[C@H](O)[C@@H]1OP(=O)(O)O [acetyl-CoA]
Km ([2]; previous analyses using a TCA-precipitation assay, read-out: Km for acetyl-CoA): 3 µM
Km ([1]; SPA, suggested by linear relationship over 0-1.6 μM substrate, read-out: Km for acetyl-CoA): > 1.6 µM

NC(=O)CI [iodoacetamide, Iodoacetamide, reference compound]
IC50 [1]: 15 ± 1 µM
IC50 ([3]; TCA precipitation assay, inhibitor preincubated with enzyme 15 minutes at 23° C.): 25 ± 3 µM

C=C/C(C)=C/[C@@]1(C)SC(=O)C(C)=C1O [thiolactomycin]
IC50 (E. coli KASIII [4]): 160 ± 14 µM
IC50 (E. coli KASIII [5]): 124 ± 14 µM

BMACP: Biotinylated Malonyl-Acyl Carrier Protein, prepared by biotinylation of MACP using NHS-biotin; KASIII substrate
Km ([2]; previously determined using a TCA precipitation assay, read-out: Km previously determined): 3.7 µM
Km ([1]; SPA format, 7.5 μM tritiated acetyl-CoA, 30° C., 9 min, read-out: Km (apparent) for substrate): 7.2 ± 2.6 µM

MACP: Malonyl-Acyl Carrier Protein generated from Escherichia coli ACP and malonyl-CoA; KASIII substrate
Km ([3]; TCA-based assay, 13.3 μM tritiated acetyl-CoA, 30° C., 5 min, read-out: Km (apparent) for substrate): 6.1 ± 0.4 µM
